# Experimental data from US6869929B2, “Use of transcription factors for treating inflammation and other diseases” (Beth Israel Deaconess Medical Center, priority 2000, dated 2005).
# Key:
# Type in all cases: cell-based, human
# ESE-1 [1] = experiment: ESE-1 mRNA Northern blot in LB-12 osteoblasts; conditions: LB-12 cells
# Experimental: U-87 Mg and U-138 Mg (human glioma), THP-1 (human monocytic), RAW 264.7 (murine monocytic), LB-12 (human osteoblast-like large T antigen transformed bone marrow stromal cells), and human chondrocytes were grown and treated with cytokines as described (Apperley, J., et al. 1990. J Bone Mineral Res. 5:S93; Goldring, M. B., et al. 1994. J Clin Invest 94:2307-16; Goldring, S. R., et al. 1983. J Bone Joint Surg 65:575-84; Libermann, T. A., et al. 1987. Embo J. 6:1627-1632).
# Total RNA was harvested using QIAshreder (Qiagen) and RNeasy® Mini Kit (Quiagen) or Trizol (Gibco BRL). Poly A^+ RNA was prepared with MicroPoly(A) Pure (Ambion). Northern blots (5 μg total RNA) were hybridized using a full length ESE-1 cDNA probe as described (Oettgen, P., et al. et al. 1997, Mol Cell Biol 17:4419-33.).
# Osteoblasts, the bone cells responsible for bone formation, represent another connective tissue cell target of inflammatory cytokines in joint disorders (Bogoch, E. R., and E. Moran. 1998, Can J Surg 41:264-71). […] LB-12 cells were incubated for different times in the absence or presence of IL-1β. […] Since the rapid, but transient induction of ESE-1 resembles that of immediate early genes, we tested the effect of the protein synthesis inhibitor cycloheximide which superinduces expression of certain genes due to mRNA stabilization. Cycloheximide alone had no effect, but superinduced IL-1β-mediated ESE-1 mRNA expression (FIG. 11d).
# ESE-1 [2] = experiment: ESE-1 mRNA time course in C-28/I2 chondrocytes; conditions: 10 μg/ml, absence or presence of IL-1β, up through 8 h
# Experimental: The immortalized human chondrocyte cell lines T/C-28a2 and C-28/I2 (Goldring M B, et al., J Clin Invest 1994;94:2307-16) were cultured in Dulbecco's modified Eagle's medium (DMEM)/Ham's F12 (1/1, v/v; Life Technologies) containing 10% fetal calf serum (FCS; Biowhitaker) and passaged using trypsin-EDTA solution (Life Technologies) at >95% confluency every 5 to 6 days. The temperature-sensitive tsT/AC62 cells (Robbins J R, et al., Arthritis Rheum 2000;43:2189-201) were grown in DMEM/Ham's F12 (1/1, v/v) supplemented with 10% FCS, 10 IU/ml penicillin, 100 μg/ml streptomycin and maintained at 32° C. in 5% CO2 and the culture medium was changed every 3 to 4 days. The cells were grown to confluence and passaged by treatment with trypsin/EDTA as described previously (Robbins J R, et al., Arthritis Rheum 2000;43:2189-201). Suspensions of tsT/AC62 were embedded in alginate and cultured for X days. […]
# We first examined the time course of ESE-1 expression at the mRNA level in the C-28/I2 human chondrocyte cell line after treatment with IL-1β for periods of time between 0.5 and 24 h (FIG. 17). In IL-1β-treated quiescent cultures, ESE-1 mRNA was detected at 30 min, increased to peak levels within 4 h, and declined gradually thereafter. […]
# COL2A1 = COL2A1 mRNA time course in C-28/I2 chondrocytes; conditions: earlier time points
structure (smiles),measurement,setting,value
"C[C@@H]1C[C@@H]([C@H](O)CC2CC(=O)NC(=O)C2)C(=O)[C@@H](C)C1 [Cycloheximide, cycloheximide]",IL-1β-mediated ESE-1 mRNA expression in presence of agent,ESE-1 [1],superinduced
same,"ESE-1 mRNA expression, agent alone","ESE-1 [1]; 1, 2, 6, 24 hours",had no effect
same,ESE-1 mRNA levels in presence of agent,ESE-1 [2],stabilized the levels of ESE-1 mRNA and augmented control and IL-1β-stimulated expression
same,IL-1β inhibition of COL2A1 mRNA in presence of agent,COL2A1,appeared to abolish this inhibition
